In this assay the test system is L1210 leukemia ip in BDF1 mice, survival T/C. Description: NCI In Vivo Anticancer Drug Screen. Data for tumor model L1210 Leukemia (intraperitoneal) in B6D2F1 (BDF1) mice. As to conditions: endpoint: mean survival time, higher = longer survival. In short, it runs like this:
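Tumor was transplanted into mice, which were then dosed with test compound or vehicle alone. Survival was recorded for each group, and the treated figure was expressed relative to the control figure.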

Where [1] appears, read: dose: 5.0 mg/kg/injection, schedule: Q01DX001 (ip), vehicle: saline.
[2] abbreviates: dose: 10.0 mg/kg/injection, schedule: Q01DX001 (ip), vehicle: saline.
Where [3] appears, read: dose: 20.0 mg/kg/injection, schedule: Q01DX001 (ip), vehicle: saline.
The mark [4] stands for this setting: dose: 100.0 mg/kg/injection, schedule: Q01DX009 (ip), vehicle: saline.
The mark [5] stands for this setting: dose: 100.0 mg/kg/injection, schedule: Q01DX001 (ip), vehicle: Klucel (hydroxypropylcellulose) (HPC).
Where [6] appears, read: dose: 100.0 mg/kg/injection, schedule: Q04DX003 (ip), vehicle: Klucel (hydroxypropylcellulose) (HPC).
The mark [7] stands for this setting: dose: 200.0 mg/kg/injection, schedule: Q01DX001 (ip), vehicle: Klucel (hydroxypropylcellulose) (HPC).
The mark [8] stands for this setting: dose: 200.0 mg/kg/injection, schedule: Q04DX003 (ip), vehicle: Klucel (hydroxypropylcellulose) (HPC).
Setting [9] is: dose: 400.0 mg/kg/injection, schedule: Q01DX001 (ip), vehicle: Klucel (hydroxypropylcellulose) (HPC).
Setting [10] is: dose: 400.0 mg/kg/injection, schedule: Q04DX003 (ip), vehicle: Klucel (hydroxypropylcellulose) (HPC).
Where [11] appears, read: dose: 100.0 mg/kg/injection, schedule: Q04DX003 (ip), vehicle: saline.
[12] abbreviates: dose: 200.0 mg/kg/injection, schedule: Q04DX003 (ip), vehicle: saline.
The mark [13] stands for this setting: dose: 400.0 mg/kg/injection, schedule: Q04DX003 (ip), vehicle: saline.
[14] abbreviates: dose: 100.0 mg/kg/injection, schedule: Q01DX009 (ip), vehicle: Klucel (hydroxypropylcellulose) (HPC).
The mark [15] stands for this setting: dose: 200.0 mg/kg/injection, schedule: Q01DX009 (ip), vehicle: Klucel (hydroxypropylcellulose) (HPC).
Where [16] appears, read: dose: 400.0 mg/kg/injection, schedule: Q01DX009 (ip), vehicle: Klucel (hydroxypropylcellulose) (HPC).

Here are results for 17 compounds from PubChem BioAssay AID248 (DTP/NCI, 2004).

The structures appear in SMILES notation. Where “and” joins values, the source holds several entries; their conditions need not be identical. Equal values may be shown once. Toxic doses and inconclusive results are not listed.

Consider `CCOP(=S)(OCC)OCCN(CC)CC`, for which the T/C by setting is: under setting [1], 101 % of control; under setting [2], 105 % of control; under setting [3], 105 % of control.

Consider `CCCCN(CCCC)CCCN1C(=O)c2ccccc2S1(=O)=O`, for which the T/C (dose: 44.0 mg/kg/injection, schedule: Q01DX Z (ip), vehicle: methylcellulose (MC)) is 96 % of control; the T/C (dose: 66.0 mg/kg/injection, schedule: Q01DX Z (ip), vehicle: methylcellulose (MC)) is 100 % of control; the T/C (dose: 100.0 mg/kg/injection, schedule: Q01DX Z (ip), vehicle: methylcellulose (MC)) is 96 % of control.

With `Cc1cncn1Cc1ccc([N+](=O)[O-])cc1`, the T/C is, setting by setting: (dose: 25.0 mg/kg/injection, schedule: Q01DX009 (ip), vehicle: saline) 101 % of control and 102 % of control; (dose: 25.0 mg/kg/injection, schedule: Q04DX002 (ip), vehicle: saline) 106 % of control and 115 % of control; (dose: 50.0 mg/kg/injection, schedule: Q01DX009 (ip), vehicle: saline) 98 % of control and 108 % of control; (dose: 50.0 mg/kg/injection, schedule: Q04DX002 (ip), vehicle: saline) 97 % of control and 100 % of control; under setting [4], 96 % of control.

In the case of `NC(Cc1cn(Cc2ccccc2)cn1)C(=O)O` (stereo not drawn), the T/C is, setting by setting: (dose: 12.5 mg/kg/injection, schedule: Q04DX003 (ip), vehicle: saline) 109 % of control; (dose: 25.0 mg/kg/injection, schedule: Q04DX003 (ip), vehicle: saline) 89 % of control; (dose: 50.0 mg/kg/injection, schedule: Q04DX003 (ip), vehicle: saline) 106 % of control.

Turning to `c1scc2c1COCc1cscc1-2`, the T/C by setting is: (dose: 100.0 mg/kg/injection, schedule: Q01DX001 (ip), vehicle: saline with Tween-80) 94 % of control; (dose: 200.0 mg/kg/injection, schedule: Q01DX001 (ip), vehicle: saline with Tween-80) 94 % of control; (dose: 400.0 mg/kg/injection, schedule: Q01DX001 (ip), vehicle: saline with Tween-80) 88 % of control.

For `CC12c3ccccc3C(C)(c3c1ccc1ccccc31)C1C(=O)OC(=O)C12` (stereo not drawn), the T/C (dose: 25.6 mg/kg/injection, schedule: Q04DX002 (ip), vehicle: Klucel (hydroxypropylcellulose) (HPC)) is 88 % of control; the T/C (dose: 64.0 mg/kg/injection, schedule: Q04DX002 (ip), vehicle: Klucel (hydroxypropylcellulose) (HPC)) is 92 % of control; the T/C (dose: 160.0 mg/kg/injection, schedule: Q04DX002 (ip), vehicle: Klucel (hydroxypropylcellulose) (HPC)) is 88 % of control; the T/C (dose: 400.0 mg/kg/injection, schedule: Q04DX002 (ip), vehicle: Klucel (hydroxypropylcellulose) (HPC)) is 98 % of control.

Consider `CCN(CC)CCCC(C)Nc1ncnc2ncc3c(c12)CCCC3` (stereo not drawn), for which the T/C was 102 % of control (dose: 100.0 mg/kg/injection, schedule: Q04DX002 (ip), vehicle: saline) and 98 % of control (dose: 200.0 mg/kg/injection, schedule: Q04DX002 (ip), vehicle: saline).

Turning to `C=CCOc1cccc(C(C)(C)C)c1`, the T/C was 103 % of control (dose: 75.0 mg/kg/injection, schedule: Q04DX003 (ip), vehicle: saline with Tween-80); 101 % of control (dose: 150.0 mg/kg/injection, schedule: Q04DX003 (ip), vehicle: saline with Tween-80); 92 % of control (dose: 300.0 mg/kg/injection, schedule: Q04DX003 (ip), vehicle: saline with Tween-80).

Regarding `O=c1c2ccccc2[nH]c2ccccc12`, the T/C reads like this: (dose: 50.0 mg/kg/injection, schedule: Q04DX003 (ip), vehicle: Klucel (hydroxypropylcellulose) (HPC)) 103 % of control; under setting [5], 95 % of control; (dose: 100.0 mg/kg/injection, schedule: Q01DX Z (ip), vehicle: carboxymethylcellulose (CMC)) 96 % of control; under setting [6], 101 % of control; under setting [7], 98 % of control; (dose: 200.0 mg/kg/injection, schedule: Q01DX Z (ip), vehicle: carboxymethylcellulose (CMC)) 103 % of control. In addition, the T/C under setting [8] was 106 % of control and 97 % of control; the T/C under setting [9] is 95 % of control; the T/C (dose: 400.0 mg/kg/injection, schedule: Q01DX Z (ip), vehicle: carboxymethylcellulose (CMC)) was 105 % of control; the T/C under setting [10] is 103 % of control and 96 % of control.

Regarding `COc1ccc(C[Si](C)C)cc1`, the T/C is 93 % of control under setting [11], 98 % of control under setting [12] and 94 % of control under setting [13].

In the case of `NC(=S)N/N=C\c1ncnc2nc[nH]c12`, the T/C by setting is: (dose: 0.5 mg/kg/injection, schedule: Q03HX024 (ip), vehicle: saline) 111 % of control; (dose: 1.0 mg/kg/injection, schedule: Q03HX024 (ip), vehicle: saline) 121 % of control; under setting [1], 114 % of control; (dose: 8.0 mg/kg/injection, schedule: Q03HX024 (ip), vehicle: saline) 150 % of control; under setting [2], 118 % of control; under setting [3], 114 % of control.

Consider `COc1ccccc1C(=O)N/N=C\c1ccc(Cl)cc1Cl`, for which the T/C was 111 % of control under setting [4]; 122 % of control under setting [11]; 97 % of control (dose: 200.0 mg/kg/injection, schedule: Q01DX009 (ip), vehicle: saline); 103 % of control under setting [12]; 94 % of control (dose: 400.0 mg/kg/injection, schedule: Q01DX009 (ip), vehicle: saline); 100 % of control under setting [13].

Take `CC(=O)OC1CCCCCCC1`: the T/C under setting [14] is 97 % of control; the T/C under setting [6] is 95 % of control; the T/C under setting [15] was 100 % of control; the T/C under setting [8] was 92 % of control; the T/C under setting [16] was 94 % of control; the T/C under setting [10] is 92 % of control.

For `O=C(O)c1ccccc1C(NC(=O)N1C(=O)C=CC1=O)NC(=O)N1C(=O)C=CC1=O`, the T/C is, setting by setting: (dose: 100.0 mg/kg/injection, schedule: Q01DX001 (ip), vehicle: carboxymethylcellulose (CMC)) 97 % of control; (dose: 200.0 mg/kg/injection, schedule: Q01DX001 (ip), vehicle: carboxymethylcellulose (CMC)) 97 % of control; (dose: 400.0 mg/kg/injection, schedule: Q01DX001 (ip), vehicle: carboxymethylcellulose (CMC)) 106 % of control.

`C[C@@H]1CCC([C@@H](C)[C@H]2CC[C@H]3[C@@H]4CC[C@H]5C[C@@H](O)CC[C@]5(C)[C@H]4CC[C@]23C)=NC1`: the T/C runs as follows: (dose: 1.56 mg/kg/injection, schedule: Q01DX015 (ip), vehicle: saline) 94 % of control; (dose: 3.13 mg/kg/injection, schedule: Q01DX015 (ip), vehicle: saline) 97 % of control; (dose: 6.25 mg/kg/injection, schedule: Q01DX015 (ip), vehicle: saline) 94 % of control; (dose: 12.5 mg/kg/injection, schedule: Q01DX015 (ip), vehicle: saline) 94 % of control; (dose: 12.5 mg/kg/injection, schedule: Q01DX Z (ip), vehicle: saline) 93 % of control; (dose: 25.0 mg/kg/injection, schedule: Q01DX Z (ip), vehicle: saline) 106 % of control. Moreover, the T/C was 93 % of control (dose: 50.0 mg/kg/injection, schedule: Q01DX Z (ip), vehicle: saline); 97 % of control (dose: 100.0 mg/kg/injection, schedule: Q01DX Z (ip), vehicle: saline); 93 % of control (dose: 125.0 mg/kg/injection, schedule: Q01DX001 (ip), vehicle: saline).

Regarding `CCOC(=N)c1ccc(C(=O)OCCOC)cc1`, the T/C reads like this: (dose: 100.0 mg/kg/injection, schedule: Q01DX001 (ip), vehicle: saline) 97 % of control; (dose: 200.0 mg/kg/injection, schedule: Q01DX001 (ip), vehicle: saline) 97 % of control; (dose: 400.0 mg/kg/injection, schedule: Q01DX001 (ip), vehicle: saline) 97 % of control.

Take `O=C(c1ccc(Cl)cc1)c1nonc1C(=O)c1ccc(Cl)cc1`: the T/C is 100 % of control under setting [5]; 98 % of control under setting [14]; 96 % of control under setting [7]; 95 % of control under setting [15]; 100 % of control under setting [9]; 106 % of control under setting [16].
